Measured values: US11667949B2, “Reporter construct and biosensor for interferon second messenger 2-5A” (The Trustees of Princeton University, priority 2018, dated 2023)
Read-outs that look alike come from different tables or passages of the source. Numbered stars: 1 amine (or outer) side, 2 acyl side, 3 side chain; on linkers, the order of the positions; unused ones are H or OH. Bridge positions count the residues as written; N and C are the ends. Square brackets hold non-standard residues; d marks the D form. Peptide text beside a SMILES is read from it. I, II: the chains in the order shown. Actinocin(9to1) = Cc1c2oc3c(C)ccc(C(=O)[*:1])c3nc-2c(C(=O)[*:2])c(N)c1=O; NMeV = CN[C@H](C(=O)O)C(C)C; Sar = CNCC(=O)O

Tests used:
[1] = molecular target: T1, RNase L (Homo sapiens, UniProt Q05823); details: cited from earlier work
T1 sequence (Q05823 1-741): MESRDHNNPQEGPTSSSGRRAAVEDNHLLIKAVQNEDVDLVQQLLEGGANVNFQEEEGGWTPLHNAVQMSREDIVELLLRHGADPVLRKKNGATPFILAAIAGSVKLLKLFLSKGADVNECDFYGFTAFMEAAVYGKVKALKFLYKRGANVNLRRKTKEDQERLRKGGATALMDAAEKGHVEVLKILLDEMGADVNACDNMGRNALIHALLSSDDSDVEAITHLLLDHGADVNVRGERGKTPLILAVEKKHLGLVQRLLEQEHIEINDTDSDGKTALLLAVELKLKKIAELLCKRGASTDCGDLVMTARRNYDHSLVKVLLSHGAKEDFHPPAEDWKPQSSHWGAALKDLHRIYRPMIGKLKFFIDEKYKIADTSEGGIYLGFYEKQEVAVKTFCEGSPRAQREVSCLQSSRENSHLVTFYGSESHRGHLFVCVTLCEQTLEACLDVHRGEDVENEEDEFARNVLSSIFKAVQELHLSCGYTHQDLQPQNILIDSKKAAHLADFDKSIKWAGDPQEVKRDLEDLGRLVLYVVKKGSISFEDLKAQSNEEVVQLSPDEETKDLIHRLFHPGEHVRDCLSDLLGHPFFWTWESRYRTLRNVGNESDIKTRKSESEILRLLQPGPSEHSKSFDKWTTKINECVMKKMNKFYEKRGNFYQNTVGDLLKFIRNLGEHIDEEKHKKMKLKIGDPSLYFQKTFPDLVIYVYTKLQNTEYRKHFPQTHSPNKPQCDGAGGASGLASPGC

[2] = system: A549 cells; experiment: Nascent protein synthesis by puromycin pulse labeling; format: cell-based, human
Experimental: Ribopuromycilation and ^35S labeling to monitor nascent translation: To generate puromycin-tagged nascent peptides, human cells were treated with 0.1-1 μg/mL of poly-IC for times specified on the figures, after which the growth media was supplemented with 10 μg/mL puromycin (Invitrogen). Puromycin pulse lasted for 5 min. Cells were trypsinized and harvested in NuPAGE LDS sample buffer for western blot analyses. Proteins were separated by 10% BisTris PAGE (NuPAGE), and transferred on PVDF membranes (Life Technologies). The membrane was stained with Ponceau to normalize for sample loading, then washed and blocked with 5% non-fat dry milk in TBST buffer. The membranes were probed with 1:1000 mouse anti-puromycin antibody (EMD Millipore) that binds to de novo synthesized proteins, followed by horseradish peroxidase-conjugated goat anti-mouse secondary antibody (1:10,000, Jackson ImmunoResearch). Metabolic labeling with ^35S was conducted using the following procedure. After cell treatment with poly-IC, media was changed to methionine-free RPMI+10% FBS supplemented with 11 μCi EASY TAG™ EXPRESS35S Protein Labeling Mix (Perkin Elmer). Cellular proteins were resolved by 10% BisTris PAGE (NuPAGE) and analyzed by phosphorimaging.

[3] = system: A549 cells; experiment: Live cell 2-5A measurements in A549 cells stably expressing FLAG-V6 biosensor; format: cell-based, human; details: pre-treatment before poly-IC
Experimental: Live cell 2-5A measurements in stable cell lines expressing V6 or V6-Y312A reporters: A549 or HeLa cells stably expressing V6 or V6-Y312A control reporters were seeded at a density of 1·10^4 /well on TC-treated, clear flat bottom white 96-well plates. Before transfection with poly-IC, cells were pre-treated with 100 μM D-luciferin ethyl ester (1% DMSO) (f/c) (Marker Gene Technologies). After one hour of substrate pre-treatment, a poly-IC/lipofectamine complex (1 μg/mL Poly-IC+0.5 μL Lipofectamine 2000 in a final volume of 100 μL) was added to the cells along with a second addition of 100 μM D-luciferin and HEPES (pH 7.5; 20 mM f/c). Dilutions of poly-IC were made by diluting the poly-IC/lipofectamine complexes. Luminescence measurements were taken in repeat-mode using plate reader at time intervals shown on the figures. After three hours, fresh D-luciferin ethyl ester (100 μM) was re-supplied at every hour to ensure excess reporter substrate. Luminescence acquisition time was one minute per well. For IFN-β pre-treatment, a dose of 1000 U/mL (f/c) was used 24 hours before poly-IC treatment.

[4] = system: A549 cells; experiment: Secreted IFN detection by qPCR in conditioned media; format: cell-based, human
Experimental: qRT-PCR analysis: Cells were harvested in 350 μL RLT buffer (Qiagen) and RNA was purified according to the RNeasy protocol (Qiagen). cDNA was prepared using oligo-dT and a High Capacity RNA to cDNA kit (Applied Biosystems). qPCR was performed using the Power SYBR green PCR mix in a 96 well format on StepOnePlus qPCR instrument (Life Technologies). qPCR primers used in this work were from Integrated DNA Technologies and are available via the manufacturer if not specifically recited in the Table below.
Secreted IFN detection by qPCR in conditioned media: A549 WT and RNase L knock out (KO) cells in 12-well plates were transfected with 1 μg/mL poly-IC and lipofectamine 2000 for 0.5, 2 or 6 hours. At the end of the time course, cells were washed four times with 1 mL of growth medium (RPMI+10% FBS) to remove residual poly IC. After the washes, fresh 1 mL medium was added and the cells were kept in fresh media for one hour to allow for protein secretion. Treatments of naive cells with conditioned media were done in a separate 12-well plate and using cells seeded 1 day before the analysis. Naïve cell media was replaced with 1 mL of the conditioned medium from above. Cells were grown in the conditioned media for 16 hours and harvested in 300 μL RLT (Qiagen). For pulse-chase experiments in FIG. 9C, 10 μM anisomycin was added 3 hours after poly-IC addition. Anisomycin level was additionally maintained during the last hour allocated for IFN secretion into fresh media.

[5] = system: HeLa cells; experiment: Reporter assay in live cells transfected with V6 or Y312A V6 constructs; format: cell-based, human
Experimental: Reporter assay in live cells: NLS and NES tag sequences cloned in the reporter immediately following the FLAG tag were […] (SEQ ID NO: 4) and […] (SEQ ID NO: 5), respectively. […] These 96 well plates were clear bottom and white for optimum luminescence readings. […] Luminescence acquisition time: 1 minute/well.

[6] = system: HeLa cells; details: poly IC 6 hours, <3 kDa flow-through, V6 reporter in vitro
Experimental: In vitro Luminescence assays: The luminescence reactions contained 20 mM Hepes (pH7.4), 100 mM NaCl, 5 mM MgCl2, 5% (vol/vol) glycerol, 1 mM DTT, 3 mM ATP, 250 uM Coenzyme A hydrate (Sigma Aldrich). After adding specified concentrations of reporter protein and 2-5A (p2-5A3, pA3), D-luciferin, Potassium salt (Gold Biotechnology) was added at a final concentration of 400 uM. The reactions were allowed to stabilize for 2 minutes and immediately after luminescence measurements were taken on a plate reader (Berthold Technologies). Acquisition time for the reaction was set to be 10 seconds.
2-5A extraction: HeLa cells treated for 6 hours with 1 ug/ml polyIC were lysed with RIPA (Thermo Fisher Scientific) buffer along with 0.5 mM PMSF protease inhibitor. The lysate was spun down at 12000 g for 10 minutes at 4° C. The supernatant was passed through a 3 KDa centrifugal filter to collect small nucleic acids. An equivalent amount of RNA from mock or polyIC treated sample was added to the luminescence assay.

[7] = system: HeLa cells; details: stable monoclonal HeLa reporter cells
Experimental: In an additional experiment, HeLa cells were stably transduced with a lentiviral construct containing the reporter. A monoclonal population of reporter expressing cells was then selected by limiting serial dilution. For reporter assay, these monoclonal cells were seeded at a cell density of 2×10^5 cells per well on 96 well plates. After the cells adhered to the plates (in approximately 6 hours), the cells were pre-treated with 100 uM D-luciferin ethyl ester (1% DMSO) (f/c). After one hour of substrate pre-treatment, poly IC-Lipofectamine complexes were added to the cells along with a second addition of 100 uM D-luciferin substrate. Luminescence measurements were taken on Repeated mode in the plate reader: every 15 minutes for the course of three hours. Luminescence acquisition time: 1 minute/well.

In the case of 2′-5′-linked oligoadenylates [2-5A], the “affinity for latent RNase L” value [1] is listed as “sub-nanomolar” and the “attenuation of basal cell-wide translation” value ([2]; 2-5A activated RNase L) is listed as “more than 1,000 fold”.
In the case of `Cc1c2oc3c(C)ccc(C(=O)N[C@@H]4C(=O)N[C@H](C(C)C)C(=O)N5CCC[C@H]5C(=O)N(C)CC(=O)N(C)[C@@H](C(C)C)C(=O)O[C@@H]4C)c3nc-2c(C(=O)N[C@@H]2C(=O)N[C@H](C(C)C)C(=O)N3CCC[C@H]3C(=O)N(C)CC(=O)N(C)[C@@H](C(C)C)C(=O)O[C@@H]2C)c(N)c1=O` [Actinomycin D] (I: T[dV]P[Sar][NMeV] / II: T[dV]P[Sar][NMeV]; ester I:1-I:C, II:1-II:C; linker I:N-II:N via Actinocin(9to1)), the “OAS/RNase L activation after pre-treatment with transcription inhibitor” value [3] is reported as “not inhibited”.
In the case of `COc1ccc(C[C@H]2NC[C@H](O)[C@H]2OC(C)=O)cc1` [anisomycin], the “IFN production (IFN activity in the media)” value ([4]; 10 μM anisomycin added 3 hours after poly-IC, before the IFN response) is reported as “blocked IFN production” and the “effect on ISG mRNAs” value ([4]; naïve cells, control experiment) is reported as “mild stimulatory effect”.
In the case of poly-Inosine/poly-Cytidine [poly IC], the global translation ([2]; WT A549 cells, before ISG induction) is reported as “halted global translation”, the “2-5A build-up, fold, poly IC treated vs untreated cells” value ([5]; 30 minutes) is reported as 2.4 fold and the “maximum fold change of reporter” value ([5]; 3 hours post poly IC treatment) is reported as 30 fold. For the same compound, the “ISG induction by conditioned media” value ([4]; media of poly I:C-treated WT and RNase L−/− cells, time points beyond translational arrest) was “two orders of magnitude”, the “stimulation of the reporter by nucleic acids from poly IC treated vs mock treated cells” value [6] was “roughly 8 fold” and the “2-5A build-up, fold change with poly IC vs without poly IC” value ([7]; 30 mins) was 3.7 fold. For the same compound, the “maximum fold change of reporter” value ([7]; 3.5 hours after poly IC treatment) was 28 fold.
